Experimental data as given in patent US4530923A, “N-acetamilide, N-(phenoxy-2-propanol)- and N-(phenylamino-2-propanol)-cyclicamines” (Egyt Gyogyszervegyeszeti Gyar, priority 1981, dated 1985).
Read-outs that look alike come from different tables or passages of the source.

What was measured:
[1] = test system: Auricle; experiment: antiarrhythmic activity, electrical fibrillation threshold of auricle, anaesthetized cats; format: in vivo; conditions: relative to quinidine = 1.00, from ED50 mg/kg, i.v., fibrillation threshold method
Procedure: (§1) The animals were anaesthetized with chloralose-urethane [50/30 mg/kg, i.v.]. The minimal strength of the current necessary to evoke the ventricular and auricular fibrillo-flutter, respectively, was followed by the method of Szekeres and al. [Szekeres, Mehes and Papp: Brit. J. Pharmacol. 17, 167 (1961); Szekeres and Papp: Experimental Cardiac Arrhythmias and Antiarrhythmic Drugs, Akademiai Kiado, Budapest, 1971; Szekeres and Papp: Experimental Cardiac Arrhythmias, Hdb. Exp. Pharmacol. XVI/3, 131, (1975).
(§2) The therapeutic indices related to the antiarrhythmic activity were calculated on the basis of the LD50 /ED50 ratio, where LD50 is the doses resulting in the death of the 50% of the animals (rats), and ED50 is the dosis provoking a 50% rise in the electrical threshold for fibrillation on rats. The LD50 values were determined on male Wistar rats weighing 180 to 220 g by the method of Litchfield and Wilcoxon [J. Pharmacol. Exp. Ther. 95, 49 (1949)].
(§3) ^+ Relative activity calculated from the antiarrhythmic activity
(§4) [ED50 mg/kg, i.v.] determined on cats by the fibrillation threshold

[2] = test system: Ventricle; experiment: therapeutic index LD50:ED50 related to antiarrhythmic activity on ventricle; format: in vivo, LD50: male Wistar rats; ED50: cats (b90) / rats (b59); conditions: for Ventricle: Therapeutic index LD50:ED50 /i.v.//i.v./: LD50 i.v. rats
Procedure: as §1, §2
(§5) The i.v. and p.os LD50 values were determined on rats.

[3] = as above; format: in vivo, LD50: male Wistar rats; ED50: cats (b90) / rats (b59); conditions: rat, in vivo, iv; LD50 p.os rats; ED50 i.v.
Procedure: as §1, §2, §5

[4] = test system: Ventricle; experiment: antiarrhythmic activity, electrical fibrillation threshold of ventricle, anaesthetized cats; format: in vivo; conditions: relative to quinidine = 1.00, from ED50 mg/kg, i.v., fibrillation threshold method
Procedure: as §1, §2, §3, §4

[5] = test system: isolated rabbit heart preparation; experiment: heartelectrophysiological methods on an isolated rabbit heart preparation (summary)
From the text: The compounds of Examples 5, 6 and 7, tested by heartelectrophysiological methods on an isolated rabbit heart preparation decrease the spontaneous frequency of right ventricle, increase the electric stimulus threshold, prolong the effective refractory period and also the time of stimulus conduction. The data referring hereto are given in Table II, in the percentage of the original values.

[6] = therapeutic index LD50:ED50 related to antiarrhythmic activity on auricle; format: in vivo, LD50: male Wistar rats; ED50: cats (b90) / rats (b59); conditions: rat, in vivo, iv, ED50 i.v.
Procedure: as §1, §2, §5

[7] = test system: left auricle; experiment: heartelectrophysiological test on isolated rabbit heart preparation, left auricle; conditions: Oryctolagus cuniculus, percentage of the original values; for activation at 0.5 µg/mL: 0.5 mg/l; for activation at 0.2 µg/mL: 0.2 mg/l; for activation at 5 µg/mL: 5 mg/l
[8] = test system: right auricle; experiment: heartelectrophysiological test on isolated rabbit heart preparation, right auricle; conditions: Oryctolagus cuniculus, percentage of the original values, read-out: Spontaneous frequency /right auricle/; for inhibition at 0.2 µg/mL: 0.2 mg/l
[9] = test system: papillary muscle; experiment: heartelectrophysiological test on isolated rabbit heart preparation, papillary muscle; conditions: Oryctolagus cuniculus, percentage of the original values; for activation at 0.5 µg/mL: 0.5 mg/l; for activation at 0.2 µg/mL: 0.2 mg/l; for activation at 5 µg/mL: 5 mg/l
[10] = test system: dogs; experiment: haemodynamics in dogs anaesthetized with nembutal; format: in vivo; conditions: nembutal anaesthesia, 0.5 to 2 mg/kg i.v.
Procedure: On dogs anaesthetized with nembutal (35 mg/kg, i.v.) in an i.v. dosis of 0.5 to 2 mg/kg the compounds slightly decrease the arterial blood pressure. The compounds of Examples 5 and 6 decrease the coronary resistance, improve the oxygenization of the heart muscle, increase the blood flow of the artery femoralis, and the compound of Example 5 increases also the blood flow of arteria carotis.

[11] = test system: cardiac rhythm disturbances; conditions: cited from earlier work
[12] = test system: Auricle; experiment: therapeutic index LD50:ED50 related to antiarrhythmic activity on auricle; format: in vivo, LD50: male Wistar rats; ED50: cats (b90) / rats (b59)
Procedure: as §1, §2, §5

[13] = test system: nervus ischiadicus of frog; experiment: local anaesthetic effect on action potential of nervus ischiadicus of frog
[14] = ventricle (from Table I), versus quinidine
[15] = LD50 i.v. rats, read-out: Auricle: Therapeutic index LD50:ED50 /i.v.//i.v./
[16] = LD50 p.os rats, read-out: Auricle: Therapeutic index LD50:ED50 /p.os//i.v./
[17] = read-out: Effective refractory period /left auricle/
[18] = read-out: Electrical threshold /left auricle/
[19] = read-out: Time of the stimulus-conduction /left auricle/
[20] = read-out: Effective refractory period /papillary muscle/
[21] = read-out: Electrical threshold /papillary muscle/

Row | Structure (SMILES) | Auricle: Relative activity [1] | Ventricle: Therapeutic index LD50:ED50 /i.v.//i.v./ [2] | selectivity ratio [3] | Ventricle: Relative activity [4] | effective refractory period (in words) [5] | electric stimulus threshold (in words) [5] | spontaneous frequency of right ventricle (in words) [5] | time of stimulus conduction (in words) [5] | selectivity ratio [6, 15] | selectivity ratio [6, 16] | blood flow of the artery femoralis [10] | coronary resistance [10] | oxygenization of the heart muscle [10] | activation at 0.2 µg/mL [7, 17] | activation at 0.2 µg/mL [7, 18] | activation at 0.2 µg/mL [7, 19] | inhibition at 0.2 µg/mL [8] | activation at 0.2 µg/mL [9, 20] | activation at 0.2 µg/mL [9, 21] | other results
1 | Cc1cccc(C)c1NCC(O)CN1CCCCCC1 (stereo not shown) [Example 7, 1-hexamethyleneimino-3-(2,6-dimethylanilino)propanol-2] | 8.54 | 9.9 | 209 | 7.85 | prolong | increase | decrease | prolong | 20.7 | 439 | – | – | – | – | – | – | – | – | – | quotient i.v. LD50 / i.v. ED50, times higher than that of quinidine [2, 14]: about 1.4 times; activation at 0.5 µg/mL [7, 17]: 11%; activation at 0.5 µg/mL [7, 18]: 25%; activation at 0.5 µg/mL [7, 19]: 28%; inhibition at 0.5 µg/mL ([8]; 0.5 mg/l): 9 ± 1%; activation at 0.5 µg/mL [9, 20]: 10%; activation at 0.5 µg/mL [9, 21]: 29%
2 | Cc1cccc(C)c1OCC(O)CN1CCCCCC1 (stereo not shown) [Example 5, 1-(2,6-dimethylphenoxy)-3-hexamethyleneimino-propanol-2] | 7.14 | 7.7 | 110 | 8.04 | prolong | increase | decrease | prolong | 13.3 | 189 | increase | decrease | improve | 10% | 24% | 38% | 4 ± 2% | 9% | 46% | blood flow of arteria carotis [10]: increases
3 | C=C[C@H]1C[N@@]2CC[C@H]1C[C@@H]2[C@@H](O)c1ccnc2ccc(OC)cc12 [Quinidine, reference compound] | 1.00 | 6.9 | 145 | 1.00 | – | – | – | – | 13.4 | 280 | – | – | – | – | – | – | – | – | – | activation at 5 µg/mL [7, 17]: 32%; activation at 5 µg/mL [7, 18]: 120%; activation at 5 µg/mL [7, 19]: 90%; inhibition at 5 µg/mL ([8]; 5 mg/l): 12 ± 1%; activation at 5 µg/mL [9, 20]: 55%; activation at 5 µg/mL [9, 21]: 56%; effectiveness in cardiac rhythm disturbances ([11]; Br. Heart J. 38, 381 (1976)): effective primarily in the treatment of arrhythmia, auricular flutter, fibrillation and paroxysmal tachycardia; toxic side-effects ([11]; background literature): induce subjective hyperaesthesia, create vision problems, headache and nausea, and give rise to grave asthmatic symptoms
4 | Cc1cccc(C)c1OCC(O)CN1CCCCCCC1 (stereo not shown) [Example 6, 1-(2,6-dimethylphenoxy)-3-heptamethyleneimino-propanol-2] | 12.50 | 2.8 | 229 | 2.80 | prolong | increase | decrease | prolong | 23.9 | 1960 | increase | decrease | improve | 3% | 19% | 15% | 7 ± 1% | 4% | 9% | quotient per os LD50 / i.v. ED50, times higher than that of quinidine [2, 14]: about 1.6 times; therapeutic index related to the supraventricular activity (in words) ([12]; among the tested compounds): most preferable therapeutic index; therapeutic index related to supraventricular activity (i.v. toxicity), times higher than that of quinidine ([12]; i.v. LD50 / i.v. ED50, versus quinidine): about 1.8 times; therapeutic index related to supraventricular activity (per os toxicity), times higher than that of quinidine ([12]; per os LD50 / i.v. ED50, versus quinidine): ~7 times; local anaesthetic effect (in words) [13]: strong local anaesthetic effect; local anaesthetic effect, times stronger than that of lidocaine ([13]; versus lidocaine): 2.7 times
